According to ChEMBL document CHEMBL1156236, “Trypanoside, anti-tuberculosis, leishmanicidal, and cytotoxic activities of tetrahydrobenzothienopyrimidines” (Bioorg Med Chem, 2010):
≈ marks a conversion by molar mass, not a printed value.

Assays:
[1] = Cytotoxicity against african green monkey Vero cells after 72 hrs by MTS assay; conditions: chlorocebus sabaeus, Vero cells
[2] = system: Mycobacterium tuberculosis; assay: Antitubercular activity against Mycobacterium tuberculosis H37Rv ATCC 27294 after 7 days by microplate alamar blue assay; type: functional; conditions: H37Rv ATCC 27294, 168 h
[3] = Selectivity index, ratio of IC50 for african green monkey Vero cells to MIC for Mycobacterium tuberculosis H37Rv ATCC 27294 by microplate alamar blue assay; type: functional
[4] = system: Mycobacterium tuberculosis; assay: Antitubercular activity against Mycobacterium tuberculosis H37Rv ATCC 27294 after 7 days by low oxygen recovery assay; type: functional; conditions: H37Rv ATCC 27294, 168 h
Leishmania amazonensis [5] = assay: Antileishmanial activity against Leishmania amazonensis LV79 MPRO/BR/72/M1841 amastigotes infected BALB/c mouse assessed as lesion diameter at 5 mg/kg/day, intralesionally administered after 1 week post infection 3 times per week for 6 weeks measured on week 7 relative to control; type: functional
Leishmania amazonensis [6] = assay: (§1) Antileishmanial activity against Leishmania amazonensis LV79 MPRO/BR/72/M1841 amastigotes infected BALB/c mouse assessed as lesion diameter at 33 mg/kg/day, intralesionally administered after 1 week post infection 3 times per week for 6 weeks measured on week 7 relative to control; type: functional, organism-based
Leishmania amazonensis [7] = assay: (§2) Antileishmanial activity against Leishmania amazonensis LV79 MPRO/BR/72/M1841 amastigotes infected BALB/c mouse assessed as lesion diameter at 33 mg/kg/day, intralesionally administered after 1 week post infection 3 times per week for 6 weeks measured on week 4 relative to control; type: functional, organism-based
Leishmania amazonensis [8] = assay: as §2, with “assessed as reduction of parasite burden at 33” for “assessed as lesion diameter at 33”, “week 4 by fluorescence method relative to” for “week 4 relative to”; type: functional, organism-based; set-up: scale not given: the % may be the effect or the level left
Leishmania amazonensis [9] = assay: as §1, with “assessed as reduction of parasite burden at 33” for “assessed as lesion diameter at 33”, “week 7 by fluorescence method relative to” for “week 7 relative to”; type: functional, organism-based; set-up: scale not given: the % may be the effect or the level left

Compound | selectivity ratio at 72 h [1] | MIC [2] [µM] | Ratio IC50 [3] | MIC [4] [µM] | Activity (Leishmania amazonensis [5]) [mm] | Activity (Leishmania amazonensis [6]) [mm] | Activity (Leishmania amazonensis [7]) [mm] | Activity (Leishmania amazonensis [8]) [%] | Activity (Leishmania amazonensis [9]) [%]
CO[C@H]1/C=C/O[C@@]2(C)Oc3c(C)c(O)c4c(O)c(c(/C=N/N5CCN(C)CC5)c(O)c4c3C2=O)NC(=O)/C(C)=C\C=C\[C@H](C)[C@H](O)[C@@H](C)[C@@H](O)[C@@H](C)[C@H](OC(C)=O)[C@@H]1C [RIFAMPIN] | 1080 | 0.1 (≈ 0.0823 µg/mL) | 1080 | < 1.9 | – | – | – | – | –
MEGLUMINE ANTIMONATE | – | – | – | – | 4.7 | 2.2 | 2.1 | 100 | 100
